Each structure is given as a SMILES string. Some results are limits rather than exact numbers.

This is an account of results in ChEMBL document CHEMBL1122571, “Design and synthesis of tetrahedral intermediate analogues as potential dihydroorotase inhibitors” (J Med Chem, 1984).

Sequence of Multifunctional protein CAD (B2RQC6 whole entry): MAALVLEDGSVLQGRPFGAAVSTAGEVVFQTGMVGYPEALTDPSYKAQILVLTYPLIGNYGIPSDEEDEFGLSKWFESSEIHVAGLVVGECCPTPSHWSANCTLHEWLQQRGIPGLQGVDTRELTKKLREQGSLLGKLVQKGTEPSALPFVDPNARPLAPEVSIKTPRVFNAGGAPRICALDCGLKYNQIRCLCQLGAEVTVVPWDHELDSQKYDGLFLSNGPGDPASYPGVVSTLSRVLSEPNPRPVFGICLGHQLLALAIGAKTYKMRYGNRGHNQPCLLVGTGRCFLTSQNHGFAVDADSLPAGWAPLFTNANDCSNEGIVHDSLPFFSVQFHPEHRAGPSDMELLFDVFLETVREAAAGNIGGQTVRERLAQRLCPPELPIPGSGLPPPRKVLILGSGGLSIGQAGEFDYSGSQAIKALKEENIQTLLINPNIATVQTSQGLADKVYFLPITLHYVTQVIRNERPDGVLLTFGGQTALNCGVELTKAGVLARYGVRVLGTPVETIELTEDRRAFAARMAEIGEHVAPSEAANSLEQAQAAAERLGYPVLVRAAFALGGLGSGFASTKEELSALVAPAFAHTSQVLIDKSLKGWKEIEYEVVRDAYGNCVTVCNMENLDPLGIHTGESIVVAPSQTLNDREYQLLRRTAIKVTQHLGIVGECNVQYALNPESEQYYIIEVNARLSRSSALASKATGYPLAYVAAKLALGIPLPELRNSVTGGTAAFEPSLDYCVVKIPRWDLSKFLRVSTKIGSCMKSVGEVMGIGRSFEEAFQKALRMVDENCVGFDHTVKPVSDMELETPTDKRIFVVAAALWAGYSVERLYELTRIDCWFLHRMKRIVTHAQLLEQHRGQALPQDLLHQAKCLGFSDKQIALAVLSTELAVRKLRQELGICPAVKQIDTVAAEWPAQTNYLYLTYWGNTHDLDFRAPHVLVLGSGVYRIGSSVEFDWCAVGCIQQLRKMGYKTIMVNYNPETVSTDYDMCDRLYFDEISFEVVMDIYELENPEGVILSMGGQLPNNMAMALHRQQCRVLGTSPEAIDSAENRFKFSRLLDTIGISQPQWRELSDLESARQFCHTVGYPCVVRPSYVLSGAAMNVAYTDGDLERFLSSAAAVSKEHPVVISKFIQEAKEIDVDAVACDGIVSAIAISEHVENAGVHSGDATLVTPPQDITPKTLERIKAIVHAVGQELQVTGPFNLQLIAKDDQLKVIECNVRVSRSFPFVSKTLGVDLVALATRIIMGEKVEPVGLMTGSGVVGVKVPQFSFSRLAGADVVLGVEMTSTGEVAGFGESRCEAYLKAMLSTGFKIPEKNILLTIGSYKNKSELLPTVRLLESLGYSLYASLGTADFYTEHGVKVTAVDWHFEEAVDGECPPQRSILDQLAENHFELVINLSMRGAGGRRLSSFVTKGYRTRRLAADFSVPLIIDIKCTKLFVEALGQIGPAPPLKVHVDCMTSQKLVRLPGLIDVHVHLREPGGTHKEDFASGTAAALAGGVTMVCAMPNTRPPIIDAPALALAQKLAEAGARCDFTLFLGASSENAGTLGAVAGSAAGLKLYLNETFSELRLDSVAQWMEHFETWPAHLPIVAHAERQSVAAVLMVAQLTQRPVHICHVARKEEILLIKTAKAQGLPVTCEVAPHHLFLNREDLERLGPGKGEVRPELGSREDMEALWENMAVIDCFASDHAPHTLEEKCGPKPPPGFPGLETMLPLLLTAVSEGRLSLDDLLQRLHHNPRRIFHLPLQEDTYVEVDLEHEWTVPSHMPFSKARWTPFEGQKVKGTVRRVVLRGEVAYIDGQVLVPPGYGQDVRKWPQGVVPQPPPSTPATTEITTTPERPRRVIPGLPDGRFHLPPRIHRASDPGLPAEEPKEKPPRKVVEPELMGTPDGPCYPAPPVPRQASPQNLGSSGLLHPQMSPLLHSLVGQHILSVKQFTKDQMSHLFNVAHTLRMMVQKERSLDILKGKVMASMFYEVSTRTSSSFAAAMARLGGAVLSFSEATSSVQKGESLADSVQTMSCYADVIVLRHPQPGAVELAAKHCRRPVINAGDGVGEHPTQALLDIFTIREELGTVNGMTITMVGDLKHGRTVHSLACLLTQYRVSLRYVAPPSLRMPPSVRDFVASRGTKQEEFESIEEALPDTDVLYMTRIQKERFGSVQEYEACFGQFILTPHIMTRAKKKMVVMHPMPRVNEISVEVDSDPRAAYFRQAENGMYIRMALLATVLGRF

This test concerns the target Multifunctional protein CAD (Mus musculus, UniProt B2RQC6). Kind of test: Compound was evaluated for the inhibition of dihydroorotase enzyme from mouse Ehrlich ascites at the concentration of 10 uM and at pH 7.37. The settings on record: read-out: I50.
`O=C1C[S+]([O-])CC(C(=O)O)N1` (stereo not given): the IC50 was found to be 180 µM.
Next, `O=C1CSCC(C(=O)O)N1` (stereo not given): below 1000 µM; `C[S+]1([O-])=NC(=O)NC(C(=O)O)C1` (stereo not given): above 1000 µM.
Next, `O=C1NC(C(=O)O)CS(=O)(=O)N1` (stereo not given): 520 µM; `NC(=O)NC(CP(=O)(O)O)C(=O)O` (stereo not given): above 1000 µM.
